The text below walks through data of patent publication US20220370471A1, “COMPOSITION AND METHOD FOR TREATMENT OF HIPPOCAMPAL SYNAPSE DYSFUNCTION AND COGNITIVE DEFICITS IN ALZHEIMER'S DISEASE” (BOARD OF REGENTS, THE UNIVERSITY OF TEXAS SYSTEM, priority 2019, published 2022).

Square brackets hold non-standard residues; d marks the D form. Ends that are not written are not given here. Peptide text beside a SMILES is read from it. d2Nal = N[C@H](Cc1ccc2ccccc2c1)C(=O)O; Aib = CC(C)(N)C(=O)O

Assay [1] has as its target DRD1 (Homo sapiens, UniProt P21728). The note with it: cited from earlier work.
Another assay concerns 5×FAD mice. The note with it: systemic ghrelin treatment; cited from earlier work.
In a further assay the test system is hippocampal neurons. Put plainly: Synaptic density (vGLUT1/PSD95) in cultured hippocampal neurons. Type of assay: cell-based, mouse. The note with it: for Aβ-induced synaptic loss / synaptic density / synaptogenic effect, agonist alone: 1 μM ipamorelin or capromorelin; for Aβ-induced synaptic loss / synaptic density: alone or + 2 μM SKF81297. As to the method: Immunocytochemistry. […] NIS element software was used for image analysis. “Objective Count” dialog was used for intensity measurement. […] The overlapped dots represent synapses.
Primary hippocampal neuron culture. Hippocampal neuron cultures were prepared as previously described (15). In brief, mouse hippocampi were dissected from postnatal day 0-1 pups in cold HBSS. Cells were dissociated by using 0.025% trypsin at 37° C. for 15 minutes, followed by 10 times homogenization in ice cold DMEM. Dissociated cells were then passed through a 100 μm cell strainer (Corning) and centrifuged for 5 minutes at 210×g. The pellet was gently resuspended in neuron culture medium (Neurobasal A with 2% B27 supplement, 0.5 mM L-glutamine, Invitrogen) and plated on poly-D-lysine (Sigma-Aldrich) coated Lab-Tek chamber slides (Nunc, 177445) with appropriate densities.
Agonist treatment on primary cultured neurons. At 14 days in vitro (DIV14) hippocampal neurons were exposed to the synthetic growth hormone secretagogue receptor agonist MK0677 (Tocris, #5272, 1.5 μM) the dopamine D1-like receptor agonist SKF81297 (Sigma-Aldrich, #S143, 2 μM) or a mixture of MK0677 and SKF81297 for 5 minutes. The exposure was followed by immunostaining to examine the effects of Ghsr1α/Drd1 co-activation on Aβ induced synaptic loss or Ghsr1α/Drd1, Aβ/Ghsr1α interaction as described in previous sections.

The target in assay [2] is T1, Drd1 (Mus musculus, UniProt Q61616, INS245CCPGCC).
T1 construct: expressed in transfected cells; host or cells: HEK 293T
Put plainly: FlAsH-based FRET assay of Drd1 activity in HEK 293T cells. Type of assay: cell-based. The settings on record: oligomeric Aβ42 2 μM preincubation; SKF81297 100 μM. As to the method:
GHSR1α forms a complex with DRD1 to regulate DRD 1-mediated hippocampal synaptic strength and memory (8). In order to fully evaluate the influence of Aβ on GHSR1α, the inventor next examined whether oligomeric Aβ42 affects heterodimerization of GHSR1α and DRD1 by using HEK 293T cells co-expressing Ghsr1α and Drd1 (FIG. 2c, FIG. S2). After an incubation with oligomeric Aβ42 (5 μM) for 24 hours, the interaction between Ghsr1α and Drd1 determined by Duolink PLA was suppressed (FIGS. 2d-e), indicating the inhibitory effect of oligomeric Aβ42 on Ghsr1α/Drd1 heterodimerization. To test whether GHSR1α/DRD1 interaction was modulated in a clinical setting, the inventor examined hippocampal tissues from 5 patients with AD and compared with tissues from 5 healthy controls. […] Decreased Ghsr1α/Drd1 heterodimerization also occurred in 5×FAD mice, and this effect was exacerbated with age (FIGS. 2h-i). […]
FlAsH-based FRET. […] Fluorescence signals were monitored on microplate reader (BioTek Cytation 5) before and after the treatments. […] Area scanning read mode was used to correct artificial inaccuracies. The FRET ratio (FFlAsH/FECFP) was calculated according to equation as previously reported (69): […]

For the next assay, the target named is T2, Ghsr1α Δaa42-116 (Mus musculus, UniProt Q99P50, DEL42-116).
T2 construct: Mouse full length Ghsr1α cDNA (NCBI Gene ID: 208188) was purchased from OriGene (MR226073); expressed in transfected cells; host or cells: HEK 293T
Put plainly: Duolink PLA and Co-IP of oligomeric Aβ42 with Ghsr1α mutants in HEK 293T cells. The assay is classed as binding. The settings on record: 5 μM oligomeric Aβ42, 24 hours; Duolink PLA, validated by Co-IP. The source says:
Aβ3 physically interacts with GHSR1α. To determine whether GHSR1α expression is changed in the hippocampus in AD, the inventor performed immunohistochemical and membrane blotting assays in post-mortem hippocampal tissues from 4 subjects with AD and 4 non-demented healthy donors (non-AD). He observed increased GHSR1α expression in hippocampal tissues from patients with AD (FIGS. S1a-b and Table S1), which positively correlated with the amounts of soluble Aβ40 and Aβ42 in hippocampi (FIGS. S1c-d). […] Because Aβ binds to multiple proteins (14-16), the inventor next explored whether GHSR1α is an Aβ binding target. In order to examine the interaction between GHSR1α and AP, he labeled GHSR1α and Aβ with their specific antibodies and ran Duolink proximity ligation assay (PLA), which is a sensitive method to visualize and quantify direct protein interactions in situ (17), on hippocampal tissues from 4 subjects with AD and 4 healthy donors. The inventor observed Aβ3/GHSR1α complexes in hippocampi from patients with AD (FIGS. 1a-b). […] HEK 293T cells expressing full-length mouse Ghsr1α or its mutants were exposed to 5 μM oligomeric Aβ42 for 24 hours followed by Duolink PLA to detect Aβ/Ghsr1α complexes. […]
(§1) Duolink In Situ Proximity Ligation Assay (PLA). […] NIH Image J was used for PLA signal quantification. […]

Assay [3] deals with T3, Drd1 (Mus musculus, UniProt Q61616).
T3 construct: expressed in transfected cells; host or cells: HEK 293T
The assay can be described thus: Duolink PLA and Co-IP of oligomeric Aβ42 with Drd1 in HEK 293T cells. The assay is classed as binding. The note with it: oligomeric Aβ42 24 hours, Drd1-expressing HEK 293T cells.

The target of a further assay is T4, Ghsr1α/Drd1 (Mus musculus, UniProt Q99P50).
T4 construct: Mouse full length Ghsr1α cDNA (NCBI Gene ID: 208188) was purchased from OriGene (MR226073); expressed in transfected cells; host or cells: HEK 293T
Put plainly: Duolink PLA of Ghsr1α/Drd1 interaction in co-expressing HEK 293T cells. Type of assay: cell-based. The note with it: oligomeric Aβ42 5 μM, 24 hours. As to the method: GHSR1α forms a complex with DRD1 to regulate DRD 1-mediated hippocampal synaptic strength and memory (8). In order to fully evaluate the influence of Aβ on GHSR1α, the inventor next examined whether oligomeric Aβ42 affects heterodimerization of GHSR1α and DRD1 by using HEK 293T cells co-expressing Ghsr1α and Drd1 (FIG. 2c, FIG. S2). After an incubation with oligomeric Aβ42 (5 μM) for 24 hours, the interaction between Ghsr1α and Drd1 determined by Duolink PLA was suppressed (FIGS. 2d-e), indicating the inhibitory effect of oligomeric Aβ42 on Ghsr1α/Drd1 heterodimerization. To test whether GHSR1α/DRD1 interaction was modulated in a clinical setting, the inventor examined hippocampal tissues from 5 patients with AD and compared with tissues from 5 healthy controls. […] Decreased Ghsr1α/Drd1 heterodimerization also occurred in 5×FAD mice, and this effect was exacerbated with age (FIGS. 2h-i). […] FlAsH-based FRET assay was performed to examine the effect of oligomeric Aβ42 ([…]) on agonist (SKF81297 100 μM)-induced Drd1 activity in HEK 293T cells expressing Drd1 with FlAsH in the intercellular loop 3 and ECFP in the C-terminus (Drd1^FlAsH/ECFP). […]
as §1

The next assay addresses T5, Ghsr1α (Mus musculus, UniProt Q99P50, INS247CCPGCC).
T5 construct: Mouse full length Ghsr1α cDNA (NCBI Gene ID: 208188) was purchased from OriGene (MR226073); expressed in transfected cells; host or cells: HEK 293T
The assay can be described thus: FlAsH-based FRET assay of Ghsr1α activity in HEK 293T cells. Type of assay: cell-based. The note with it: oligomeric Aβ42 2 μM, 5 minutes pre-incubation.

Another assay addresses T6, Ghsr1α/Drd1 complex (Mus musculus, UniProt Q61616+Q99P50).
T6 construct: endogenous in cells; host or cells: primary mouse hippocampal neurons (P0-1, DIV14)
The assay can be described thus: Duolink PLA of Ghsr1α/Drd1 complex in cultured hippocampal neurons. Type of assay: cell-based. The note with it: oligomeric Aβ42 1 μM, 24 hours; 1.5 μM MK0677, 2 μM SKF81297, or in combination. The source says: (§2) Duolink In Situ Proximity Ligation Assay (PLA). […] PLA analysis was referred to previous report (66 67). NIH Image J was used for PLA signal quantification.
(§3) Agonist treatment on primary cultured neurons. […] The exposure was followed by immunostaining to examine the effects of Ghsr1α/Drd1 co-activation on Aβ induced synaptic loss or Ghsr1α/Drd1, Aβ/Ghsr1α interaction as described in previous sections.

Assay [4] has as its system hippocampal CA3-CA1 pathway. Put plainly: Long-term potentiation (fEPSP) in hippocampal slices. The note with it: MK0677 1.5 μM, SKF81297 2 μM, alone or in combination.
Description: For electrophysiological experiments, mice were anesthetized with isoflurane and decapitated. […] Slices were allowed to rest for 30 minutes after being transferred to the recording chamber before recordings began. Recordings of local field potentials (LFPs) were performed on an Axon Multiclamp 700B amplifier (Molecular Devices), and data were acquired and analyzed using AxoGraph X (AxoGraph Scientific). A tungsten concentric bipolar microelectrode (World Precision Instruments), and a recording glass electrode (1.5 MS2) filled with recording ACSF, were placed approximately 200 μm apart in the Schaffer collateral-commissural pathway in the CA1 region of the hippocampus. Pulses were delivered in 30 seconds intervals. Before baseline recordings commenced, input-output curves were taken, using 25-150 μA stimulation currents in 25 μA steps. Three sweeps were sampled at each stimulation intensity and averaged to represent the voltage response at each step. Recordings of baseline responses lasted for at least 40 minutes. Stimulation intensity was set to approximately 40% of the minimum intensity required to evoke the maximum response (based on the input-output curve). The stimulation intensity was kept consistent throughout the duration of the experiment. […] LTP was induced using a theta burst stimulation (TBS) protocol consisting of 10 bursts (5 pulses at 100 Hz) repeated at 5 Hz delivered two times 30 seconds apart. After LTP induction, LFPs were recorded for an additional 60 minutes. The slope of the field excitatory postsynaptic potential (fEPSP) was measured in Axograph scientific software and sweeps were averaged in bins of 5 for both the baseline and post LTP induction periods. Changes in LFPs are expressed as percentage change from the averaged baseline values.
The target of another assay is T7, Aβ/Ghsr1α complex (Mus musculus, UniProt Q99P50).
T7 construct: endogenous in cells; host or cells: primary mouse hippocampal neurons; Aβ42 peptide purchased (GenicBio, A-43-T-1000)
The assay can be described thus: Duolink PLA of Aβ/Ghsr1α complex in cultured hippocampal neurons. The assay is classed as cell-based. The note with it: oligomeric Aβ42 1 μM, 24 hours; 1.5 μM MK0677, 2 μM SKF81297, or in combination.
Description: as §2, §3

DRD1, sequence (P21728 whole entry, species assumed): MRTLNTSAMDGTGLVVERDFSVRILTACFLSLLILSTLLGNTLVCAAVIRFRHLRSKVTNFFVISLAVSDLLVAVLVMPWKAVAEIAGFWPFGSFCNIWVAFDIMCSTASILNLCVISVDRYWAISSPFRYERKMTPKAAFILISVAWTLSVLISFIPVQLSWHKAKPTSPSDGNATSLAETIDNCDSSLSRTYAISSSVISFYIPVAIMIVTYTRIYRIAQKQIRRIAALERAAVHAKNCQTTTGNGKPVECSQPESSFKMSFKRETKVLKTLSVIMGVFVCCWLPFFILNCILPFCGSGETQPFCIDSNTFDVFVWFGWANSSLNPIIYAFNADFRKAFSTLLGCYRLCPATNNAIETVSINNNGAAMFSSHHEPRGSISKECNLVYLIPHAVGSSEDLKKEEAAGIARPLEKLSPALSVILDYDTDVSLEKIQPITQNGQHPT
T5 sequence (Q99P50 with tags, fused parts or gaps INS247CCPGCC): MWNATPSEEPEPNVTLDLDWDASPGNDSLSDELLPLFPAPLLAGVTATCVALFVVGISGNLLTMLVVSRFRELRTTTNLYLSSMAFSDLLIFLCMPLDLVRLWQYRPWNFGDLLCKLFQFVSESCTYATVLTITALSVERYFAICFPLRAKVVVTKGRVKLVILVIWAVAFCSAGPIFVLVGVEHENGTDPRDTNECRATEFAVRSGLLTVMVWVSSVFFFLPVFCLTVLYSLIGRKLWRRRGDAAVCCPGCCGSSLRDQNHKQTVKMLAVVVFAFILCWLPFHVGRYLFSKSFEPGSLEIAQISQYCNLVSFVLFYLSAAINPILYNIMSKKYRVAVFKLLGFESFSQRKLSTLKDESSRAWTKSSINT
T1 sequence (Q61616 with tags, fused parts or gaps INS245CCPGCC): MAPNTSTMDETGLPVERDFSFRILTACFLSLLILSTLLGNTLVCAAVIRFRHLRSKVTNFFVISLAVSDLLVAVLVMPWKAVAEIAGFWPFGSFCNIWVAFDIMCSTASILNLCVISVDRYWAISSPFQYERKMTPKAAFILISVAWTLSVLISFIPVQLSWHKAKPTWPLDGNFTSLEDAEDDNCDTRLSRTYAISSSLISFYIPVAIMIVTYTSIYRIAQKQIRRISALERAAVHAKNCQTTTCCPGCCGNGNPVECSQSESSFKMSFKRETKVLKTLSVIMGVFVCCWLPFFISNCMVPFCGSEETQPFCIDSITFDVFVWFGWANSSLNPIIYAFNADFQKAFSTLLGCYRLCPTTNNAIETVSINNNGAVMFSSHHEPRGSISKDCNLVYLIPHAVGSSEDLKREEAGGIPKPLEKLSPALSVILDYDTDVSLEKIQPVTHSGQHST
T3 sequence (Q61616 whole entry): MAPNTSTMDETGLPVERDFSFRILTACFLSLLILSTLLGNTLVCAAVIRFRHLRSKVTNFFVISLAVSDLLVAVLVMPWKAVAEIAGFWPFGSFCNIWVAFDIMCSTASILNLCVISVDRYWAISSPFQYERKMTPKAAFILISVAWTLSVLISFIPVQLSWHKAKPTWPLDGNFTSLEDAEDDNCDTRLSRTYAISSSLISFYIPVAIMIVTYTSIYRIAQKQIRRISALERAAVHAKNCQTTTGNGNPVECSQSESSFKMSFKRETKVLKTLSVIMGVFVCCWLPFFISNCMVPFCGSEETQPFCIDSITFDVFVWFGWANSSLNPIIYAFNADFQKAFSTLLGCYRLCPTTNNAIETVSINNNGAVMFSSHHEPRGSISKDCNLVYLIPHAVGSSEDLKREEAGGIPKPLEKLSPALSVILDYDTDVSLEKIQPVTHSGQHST
T2 sequence (Q99P50 with tags, fused parts or gaps DEL42-116): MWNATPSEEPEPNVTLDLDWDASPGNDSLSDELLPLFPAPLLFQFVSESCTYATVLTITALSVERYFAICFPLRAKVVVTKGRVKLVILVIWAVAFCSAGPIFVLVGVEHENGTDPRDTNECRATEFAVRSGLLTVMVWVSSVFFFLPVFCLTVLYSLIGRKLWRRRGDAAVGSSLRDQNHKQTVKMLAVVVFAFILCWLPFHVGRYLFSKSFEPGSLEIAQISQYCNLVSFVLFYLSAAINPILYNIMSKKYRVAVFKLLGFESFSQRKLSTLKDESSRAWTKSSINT
T4 sequence (Q99P50 whole entry): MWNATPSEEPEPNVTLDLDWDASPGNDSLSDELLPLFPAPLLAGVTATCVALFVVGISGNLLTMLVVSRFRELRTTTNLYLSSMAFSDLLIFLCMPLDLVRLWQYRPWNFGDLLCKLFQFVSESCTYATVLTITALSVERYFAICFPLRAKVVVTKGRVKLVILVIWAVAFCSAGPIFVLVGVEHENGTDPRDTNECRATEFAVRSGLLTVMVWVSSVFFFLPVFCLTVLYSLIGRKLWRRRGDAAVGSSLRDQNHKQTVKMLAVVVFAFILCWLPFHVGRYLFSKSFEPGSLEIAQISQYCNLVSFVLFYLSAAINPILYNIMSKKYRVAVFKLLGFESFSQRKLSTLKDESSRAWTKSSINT
T6 sequence (Q99P50 whole entry): as above
T6 sequence (Q61616 whole entry): as the sequence (Q61616 whole entry) above
T7 sequence (Q99P50 whole entry): as the sequence (Q99P50 whole entry) above
T7 sequence (Q61616 whole entry, further chain): as the sequence (Q61616 whole entry) above

Regarding `Oc1cc2c(cc1O)[C@H]1c3ccccc3CN[C@@H]1CC2` (racemic) [dihydrexidine], the “binding to DRD1 / DRD2” value at DRD1 [1] was “much weaker binding affinity”.

On to “ghrelin: the natural ligand of GHSR1α (GSSFLSPEHQRVQQRKESKKPPAKLQPR; ends and bridges not checked; UniProt Q9UBU3 24-51, looked up)”, for which the “hippocampal Aβ load in 5×FAD mice” value in the assay on 5×FAD mice is “did not affect hippocampal Aβ load”.

For the molecule `CN1N=C2CCN(C(=O)[C@@H](COCc3ccccc3)NC(=O)C(C)(C)N)C[C@@]2(Cc2ccccc2)C1=O` [capromorelin], the “Aβ-induced synaptic loss / synaptic density” value in the assay on hippocampal neurons (oligomeric Aβ42 1 μM, 24 hours) is recorded as “could ameliorate”. In the assay with hippocampal neurons (without oligomeric Aβ42), the “synaptogenic effect, agonist alone” value is recorded as “comparable synaptogenic effect with ghrelin”.

Consider `CC(C)(N)C(=O)N[C@@H](Cc1c[nH]cn1)C(=O)N[C@H](Cc1ccc2ccccc2c1)C(=O)N[C@H](Cc1ccccc1)C(=O)N[C@@H](CCCCN)C(N)=O` [ipamorelin] (H-[Aib]H[d2Nal][dF]K-NH2), for which the “Aβ-induced synaptic loss / synaptic density” value in the assay on hippocampal neurons (oligomeric Aβ42 1 μM, 24 hours) is “could ameliorate”. Further, the “synaptogenic effect, agonist alone” value in the assay with hippocampal neurons (without oligomeric Aβ42) is on record as “comparable synaptogenic effect with ghrelin”.

Turning to `Oc1cc2c(cc1O)C(c1ccccc1)CNCC2` (stereo not shown) [SKF38393], on DRD1 [1], the “binding to DRD1 / DRD2” value was “selectively bind DRD1”.

As to “oligomeric Aβ42: Aβ42 peptide (GenicBio) incubated at 4° C. for 24 hours to prepare oligomers”, the “impact on agonist-induced Drd1 activation” value with Drd1 [2] was “no impact”. In addition, the “interaction with Ghsr1α mutant devoid of aa42-116” value with Ghsr1α Δaa42-116 is listed as “no interaction”. Moreover, in the assay with Drd1 [3], the Aβ/DRD1 complexes result is reported as “not observed”. Further, in the assay with Ghsr1α/Drd1, the “interaction between Ghsr1α and Drd1 (Duolink PLA)” value is on record as “suppressed”. For the same molecule, the “impact on FRET ratio in vehicle-treated cells” value with Ghsr1α (no agonist) is “no impact”. Besides, in the assay with Ghsr1α (then MK0677 50 μM), the “effect on agonist-induced Ghsr1α activation” value is “suppressed”.

Turning to `Oc1cc2c(c(Cl)c1O)CCNCC2c1ccccc1` (stereo not shown) [SKF81297], the “synaptic density / oligomeric Aβ42-induced synapse loss” value in the assay with hippocampal neurons (oligomeric Aβ42 1 μM, 24 hours, 1.5 μM MK0677, 2 μM SKF81297, or in combination) is “failed to alleviate”. Moreover, in the assay on hippocampal neurons (without oligomeric Aβ42, MK0677 at doses greater than 1.5 μM, SKF81297 2 μM), the “synaptic density, agonist alone” value is listed as “increased synaptic density”. For the same molecule, the Ghsr1α/Drd1 complex formation result at Ghsr1α/Drd1 complex is listed as “not the agonists alone”. Moreover, the “stimulus-evoked hippocampal LTP in 5×FAD slices” value in [4] (slices from 4 month-old 5×FAD mice) is “no effect”. The “hippocampal LTP in non-Tg slices” value in assay [4] (slices from 4 month-old non-Tg mice) is “no effect”. Besides, the Aβ/Ghsr1α complex formation result on Aβ/Ghsr1α complex is reported as “not MK0677 or SKF81297 alone”.
